Experiments:
Experiment in all cases: radiometric filter-binding kinase assay, Kinaseprofiler
[1] = system: PAK2 (human), Q13177 [L150F, P225T, V383I; A339 del]; conditions: ATP 90 µM
[2] = system: BLK (human), P51451 [M278V]; conditions: ATP 45 µM
[3] = system: FLT4 (human), P35916 [V1128L/H1146R]; conditions: ATP 200 µM
[4] = system: HIPK2 (human), Q9H2X6 [I471N]; conditions: ATP 10 µM
[5] = system: MET (human), P08581 [A1209G/V1290L]; conditions: ATP 45 µM
[6] = system: PRKD1 (human), Q15139 [R135A]; conditions: ATP 45 µM
PRKD1 (human), Q15139 [R135A], sequence (Q15139 whole entry, looked up, stated change not applied): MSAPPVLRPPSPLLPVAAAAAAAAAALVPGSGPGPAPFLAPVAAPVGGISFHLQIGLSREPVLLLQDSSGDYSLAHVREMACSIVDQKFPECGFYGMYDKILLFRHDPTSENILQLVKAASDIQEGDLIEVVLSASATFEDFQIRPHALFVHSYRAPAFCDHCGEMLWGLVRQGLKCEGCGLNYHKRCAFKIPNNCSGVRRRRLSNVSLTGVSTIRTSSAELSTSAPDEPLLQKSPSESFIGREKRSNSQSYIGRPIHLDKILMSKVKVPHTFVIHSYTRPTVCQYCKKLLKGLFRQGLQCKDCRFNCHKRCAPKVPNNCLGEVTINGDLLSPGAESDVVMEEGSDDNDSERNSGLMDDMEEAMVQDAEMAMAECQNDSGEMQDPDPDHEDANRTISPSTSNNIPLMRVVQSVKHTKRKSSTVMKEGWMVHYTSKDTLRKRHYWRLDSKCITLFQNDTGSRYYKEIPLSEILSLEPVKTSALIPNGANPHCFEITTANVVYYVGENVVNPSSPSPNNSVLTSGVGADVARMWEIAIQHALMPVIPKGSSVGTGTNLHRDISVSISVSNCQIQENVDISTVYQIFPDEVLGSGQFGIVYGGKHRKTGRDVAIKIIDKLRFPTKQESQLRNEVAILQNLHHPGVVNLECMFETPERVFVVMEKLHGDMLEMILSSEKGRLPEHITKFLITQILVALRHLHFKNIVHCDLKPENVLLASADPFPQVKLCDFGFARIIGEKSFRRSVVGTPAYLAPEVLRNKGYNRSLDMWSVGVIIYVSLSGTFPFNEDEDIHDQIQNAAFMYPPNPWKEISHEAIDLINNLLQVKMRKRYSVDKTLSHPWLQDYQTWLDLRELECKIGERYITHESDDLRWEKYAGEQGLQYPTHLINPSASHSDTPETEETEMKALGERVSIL

[7] = system: TGFBR1 (human), P36897 [T204D]; conditions: ATP 10 µM
TGFBR1 (human), P36897 [T204D], sequence (P36897 whole entry T204D, looked up): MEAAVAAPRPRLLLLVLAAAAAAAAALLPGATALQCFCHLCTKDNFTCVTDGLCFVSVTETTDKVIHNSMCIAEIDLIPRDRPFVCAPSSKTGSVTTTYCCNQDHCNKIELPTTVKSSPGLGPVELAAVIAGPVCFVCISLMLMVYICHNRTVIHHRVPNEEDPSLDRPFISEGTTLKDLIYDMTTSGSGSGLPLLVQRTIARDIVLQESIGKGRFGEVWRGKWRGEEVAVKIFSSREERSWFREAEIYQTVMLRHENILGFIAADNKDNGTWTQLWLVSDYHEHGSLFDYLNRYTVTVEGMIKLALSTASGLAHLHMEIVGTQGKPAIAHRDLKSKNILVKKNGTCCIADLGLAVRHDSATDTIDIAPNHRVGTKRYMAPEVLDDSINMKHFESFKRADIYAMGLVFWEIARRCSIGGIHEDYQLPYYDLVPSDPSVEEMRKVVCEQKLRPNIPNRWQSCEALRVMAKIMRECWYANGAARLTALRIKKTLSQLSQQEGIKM

HIPK2 (human), Q9H2X6 [I471N], sequence (Q9H2X6 whole entry, looked up, stated change not applied): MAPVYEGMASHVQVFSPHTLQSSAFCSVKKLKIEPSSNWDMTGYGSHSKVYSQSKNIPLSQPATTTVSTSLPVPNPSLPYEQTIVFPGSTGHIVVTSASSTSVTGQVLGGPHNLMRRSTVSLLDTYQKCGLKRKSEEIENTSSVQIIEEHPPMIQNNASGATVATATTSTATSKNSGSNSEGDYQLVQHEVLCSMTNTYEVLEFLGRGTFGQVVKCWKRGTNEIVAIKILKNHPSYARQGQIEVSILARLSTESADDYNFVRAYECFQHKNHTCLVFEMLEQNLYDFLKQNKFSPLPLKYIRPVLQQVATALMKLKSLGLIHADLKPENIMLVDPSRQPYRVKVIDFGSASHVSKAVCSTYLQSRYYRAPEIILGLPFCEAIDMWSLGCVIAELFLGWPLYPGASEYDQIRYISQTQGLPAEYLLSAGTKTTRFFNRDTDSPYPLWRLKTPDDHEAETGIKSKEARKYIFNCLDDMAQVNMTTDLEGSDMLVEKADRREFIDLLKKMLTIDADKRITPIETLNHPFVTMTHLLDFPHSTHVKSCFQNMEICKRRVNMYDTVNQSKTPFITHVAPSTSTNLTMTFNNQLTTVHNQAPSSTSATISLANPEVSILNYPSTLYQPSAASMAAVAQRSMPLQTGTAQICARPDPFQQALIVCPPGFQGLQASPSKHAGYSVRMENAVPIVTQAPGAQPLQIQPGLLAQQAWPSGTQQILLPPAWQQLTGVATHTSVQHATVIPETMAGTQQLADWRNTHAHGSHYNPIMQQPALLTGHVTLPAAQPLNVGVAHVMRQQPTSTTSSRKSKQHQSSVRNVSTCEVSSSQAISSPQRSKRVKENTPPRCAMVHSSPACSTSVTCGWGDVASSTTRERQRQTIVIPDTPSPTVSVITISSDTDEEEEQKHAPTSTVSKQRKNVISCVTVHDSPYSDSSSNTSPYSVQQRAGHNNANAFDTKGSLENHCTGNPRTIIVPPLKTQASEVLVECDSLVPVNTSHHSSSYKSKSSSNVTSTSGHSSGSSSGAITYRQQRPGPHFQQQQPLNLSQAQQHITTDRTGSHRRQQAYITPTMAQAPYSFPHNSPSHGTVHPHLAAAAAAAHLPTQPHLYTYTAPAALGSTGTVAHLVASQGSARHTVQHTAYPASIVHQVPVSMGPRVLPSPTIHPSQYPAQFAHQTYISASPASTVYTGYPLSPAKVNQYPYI
PAK2 (human), Q13177 [L150F, P225T, V383I; A339 del], sequence (Q13177 whole entry, looked up, stated change not applied): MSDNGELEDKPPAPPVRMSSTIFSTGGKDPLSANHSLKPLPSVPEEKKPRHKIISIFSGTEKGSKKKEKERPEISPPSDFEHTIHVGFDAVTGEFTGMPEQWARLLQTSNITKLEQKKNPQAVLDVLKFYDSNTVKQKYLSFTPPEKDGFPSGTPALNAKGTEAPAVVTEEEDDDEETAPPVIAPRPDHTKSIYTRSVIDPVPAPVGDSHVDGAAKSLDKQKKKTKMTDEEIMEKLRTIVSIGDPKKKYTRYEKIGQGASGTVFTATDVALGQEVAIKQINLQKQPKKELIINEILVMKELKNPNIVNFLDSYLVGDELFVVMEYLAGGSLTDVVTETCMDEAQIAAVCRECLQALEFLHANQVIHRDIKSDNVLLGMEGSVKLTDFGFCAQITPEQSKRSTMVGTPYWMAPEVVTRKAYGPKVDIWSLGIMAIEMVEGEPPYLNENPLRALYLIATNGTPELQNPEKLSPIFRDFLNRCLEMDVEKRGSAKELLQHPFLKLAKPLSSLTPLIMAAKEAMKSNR
BLK (human), P51451 [M278V], sequence (P51451 whole entry, looked up, stated change not applied): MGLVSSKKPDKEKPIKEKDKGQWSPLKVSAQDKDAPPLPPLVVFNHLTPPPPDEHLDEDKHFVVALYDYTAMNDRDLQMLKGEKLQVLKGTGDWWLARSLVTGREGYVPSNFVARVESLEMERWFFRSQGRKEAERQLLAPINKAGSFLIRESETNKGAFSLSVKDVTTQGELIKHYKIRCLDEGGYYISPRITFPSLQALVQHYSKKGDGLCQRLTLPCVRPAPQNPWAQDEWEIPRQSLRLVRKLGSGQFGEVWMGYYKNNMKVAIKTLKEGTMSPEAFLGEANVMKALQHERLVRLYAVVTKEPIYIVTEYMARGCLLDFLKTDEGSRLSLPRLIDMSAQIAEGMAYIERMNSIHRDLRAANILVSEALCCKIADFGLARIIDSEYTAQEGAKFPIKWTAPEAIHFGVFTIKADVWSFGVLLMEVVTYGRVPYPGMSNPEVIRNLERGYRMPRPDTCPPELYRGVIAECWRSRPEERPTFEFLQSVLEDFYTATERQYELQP
FLT4 (human), P35916 [V1128L/H1146R], sequence (P35916 whole entry, looked up, stated change not applied): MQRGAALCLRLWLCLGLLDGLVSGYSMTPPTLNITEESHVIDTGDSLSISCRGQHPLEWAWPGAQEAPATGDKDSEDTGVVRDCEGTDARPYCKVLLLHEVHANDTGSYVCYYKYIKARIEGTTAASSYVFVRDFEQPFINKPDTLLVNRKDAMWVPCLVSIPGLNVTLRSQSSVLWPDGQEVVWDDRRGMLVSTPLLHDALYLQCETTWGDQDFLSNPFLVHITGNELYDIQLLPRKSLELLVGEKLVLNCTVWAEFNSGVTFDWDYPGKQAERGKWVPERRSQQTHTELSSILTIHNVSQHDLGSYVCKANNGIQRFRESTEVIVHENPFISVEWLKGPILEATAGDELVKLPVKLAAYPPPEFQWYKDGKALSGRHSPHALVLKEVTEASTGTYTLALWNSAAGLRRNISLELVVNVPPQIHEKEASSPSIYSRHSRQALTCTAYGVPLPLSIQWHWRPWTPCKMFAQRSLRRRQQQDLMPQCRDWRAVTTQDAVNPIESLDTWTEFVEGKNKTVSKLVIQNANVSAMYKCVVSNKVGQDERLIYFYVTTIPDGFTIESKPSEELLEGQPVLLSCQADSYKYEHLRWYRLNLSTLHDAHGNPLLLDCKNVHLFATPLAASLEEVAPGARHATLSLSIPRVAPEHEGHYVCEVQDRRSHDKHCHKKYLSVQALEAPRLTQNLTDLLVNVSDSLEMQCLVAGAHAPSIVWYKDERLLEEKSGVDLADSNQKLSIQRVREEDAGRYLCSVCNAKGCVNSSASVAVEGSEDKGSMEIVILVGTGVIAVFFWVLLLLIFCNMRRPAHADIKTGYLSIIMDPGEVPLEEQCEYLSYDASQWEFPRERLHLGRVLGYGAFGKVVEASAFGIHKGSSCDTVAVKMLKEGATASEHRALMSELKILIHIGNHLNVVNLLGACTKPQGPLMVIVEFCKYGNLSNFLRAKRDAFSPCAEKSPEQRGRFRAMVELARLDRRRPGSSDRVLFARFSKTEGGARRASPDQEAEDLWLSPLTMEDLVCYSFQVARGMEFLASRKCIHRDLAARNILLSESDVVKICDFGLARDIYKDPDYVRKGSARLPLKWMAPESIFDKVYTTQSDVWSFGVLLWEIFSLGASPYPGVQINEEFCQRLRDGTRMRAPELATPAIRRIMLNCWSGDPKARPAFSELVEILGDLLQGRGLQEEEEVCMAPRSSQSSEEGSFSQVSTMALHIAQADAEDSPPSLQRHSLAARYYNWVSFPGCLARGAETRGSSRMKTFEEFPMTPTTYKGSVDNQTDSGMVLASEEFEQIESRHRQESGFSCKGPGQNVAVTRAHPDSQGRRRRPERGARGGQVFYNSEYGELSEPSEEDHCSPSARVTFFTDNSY

| Structure (SMILES) | residual activity ([1]; compound 1.0 µM) [%] | residual activity ([2]; compound 1.0 µM) [%] | residual activity ([2]; compound 10.0 µM) [%] | residual activity ([3]; compound 1.0 µM) [%] | residual activity ([3]; compound 10.0 µM) [%] | residual activity ([4]; compound 1.0 µM) [%] | residual activity ([4]; compound 10.0 µM) [%] | residual activity ([5]; compound 1.0 µM) [%] | residual activity ([5]; compound 10.0 µM) [%] | residual activity ([1]; compound 10.0 µM) [%] | residual activity ([6]; compound 1.0 µM) [%] | residual activity ([6]; compound 10.0 µM) [%] | residual activity ([7]; compound 1.0 µM) [%] | residual activity ([7]; compound 10.0 µM) [%] |
| --- | --- | --- | --- | --- | --- | --- | --- | --- | --- | --- | --- | --- | --- | --- |
| O=C(Nc1cccc(Nc2nccc(Nc3cccc(C(F)(F)F)c3)n2)c1)C1CC1 | 100 |  |  |  |  |  |  |  |  |  |  |  |  |  |
| O=C1c2ccccc2-c2n[nH]c3cccc1c23 | 96 | 97 | 45 | 2 | 0 | 55 | 15 | 87 | 75 | 86 | 32 | -1 | 88 | 74 |
| O=C1Nc2ccccc2/C1=C1\Nc2ccccc2\C1=N/O | 103 | 11 | 0 | -1 | 1 | 48 | 8 | 86 | 13 | 54 | 113 | 65 | 104 | 73 |
| CN[C@@H]1C[C@H]2O[C@@](C)([C@@H]1OC)n1c3ccccc3c3c4c(c5c6ccccc6n2c5c31)C(=O)NC4 |  |  |  |  |  | 52 |  |  |  |  |  |  |  |  |

— the kinase profiling compilation of Christmann-Franck et al. (2016)
